ChEMBL document CHEMBL5346863, “Discovery of substituted benzyloxy-benzylamine inhibitors of acetyltransferase Eis and their anti-mycobacterial activity” (Eur J Med Chem, 2022)
Converted amounts (≈) assume the structure as drawn. The source made the active and inactive calls. The calls are words filed in the database; no cut-off is given here.

Tests used:
N-acetyltransferase Eis [1] = molecular target: T1, N-acetyltransferase Eis (Mycobacterium tuberculosis (strain ATCC 25618 / H37Rv), UniProt P9WFK7); assay: Inhibition of wild-type Mycobacterium tuberculosis Eis expressed in Escherichia coli BL21(DE3) cells incubated for 5 mins by Ellman's method
T1 sequence (P9WFK7 whole entry): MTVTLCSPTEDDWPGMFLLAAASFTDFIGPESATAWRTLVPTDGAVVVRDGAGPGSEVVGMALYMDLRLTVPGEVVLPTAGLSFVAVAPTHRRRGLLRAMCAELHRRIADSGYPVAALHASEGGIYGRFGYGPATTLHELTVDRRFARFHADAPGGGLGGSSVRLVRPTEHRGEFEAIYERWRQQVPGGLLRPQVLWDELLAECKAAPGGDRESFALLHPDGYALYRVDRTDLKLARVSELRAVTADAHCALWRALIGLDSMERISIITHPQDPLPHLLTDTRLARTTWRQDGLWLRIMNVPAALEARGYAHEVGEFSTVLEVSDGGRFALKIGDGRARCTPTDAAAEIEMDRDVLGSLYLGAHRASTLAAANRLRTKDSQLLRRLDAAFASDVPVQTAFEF

[2] = test system: Mycobacterium tuberculosis; assay: Antibacterial activity against Mycobacterium tuberculosis H37Ra assessed as bacterial growth inhibition incubated 2 to 3 weeks by resazurin dye based assay; format: functional; details: time 2-3 weeks
[3] = test system: Mycobacterium tuberculosis; assay: Antibacterial activity against Mycobacterium tuberculosis H37Rv assessed as MIC of kanamycin A at 100 uM incubated for 24 hrs followed by kanamycin A addition measured after 6 days by alamarblue dye based assay; format: functional; details: time 7.0 day
[4] = test system: Mycobacterium tuberculosis; assay: Antibacterial activity against Mycobacterium tuberculosis mc2 6230 assessed as bacterial growth inhibition incubated 2 to 3 weeks by resazurin dye based assay; format: functional; details: time 2-3 weeks
[5] = test system: Mycobacterium tuberculosis; assay: Antibacterial activity against Mycobacterium tuberculosis mc2 6230 assessed as MIC of kanamycin A at 6.25 uM incubated for 24 hrs followed by kanamycin A addition measured after 6 days by alamarblue dye based assay; format: functional; details: mc2 6230, 168 h, time 7 day
[6] = test system: Mycobacterium tuberculosis; assay: Antibacterial activity against Mycobacterium tuberculosis mc2 6230 K204 assessed as MIC of kanamycin A at 6.25 uM incubated for 24 hrs followed by kanamycin A addition measured after 6 days by alamarblue dye based assay; format: functional; details: mc2 6230 K204, 168 h, time 7 day
[7] = test system: Mycolicibacterium smegmatis; assay: Antibacterial activity against Mycobacterium smegmatis mc2 122 assessed as bacterial growth inhibition incubated for 2 to 3 weeks by resazurin dye based assay; format: functional; details: time 2-3 weeks
[8] = test system: Mycobacteroides abscessus; assay: Antibacterial activity against Mycobacterium abscessus ATCC 19977 assessed as bacterial growth inhibition incubated for 2 to 3 weeks by resazurin dye based assay; format: functional; details: time 2-3 weeks
Mycobacterium avium = assay: Antibacterial activity against Mycobacterium avium ATCC 25291 assessed as bacterial growth inhibition incubated for 2 to 3 weeks by resazurin dye based assay; format: functional; details: time 2-3 weeks
[9] = test system: Mycobacterium parascrofulaceum; assay: Antibacterial activity against Mycobacterium parascrofulaceum ATCC BAA-614 assessed as bacterial growth inhibition incubated for 2 to 3 weeks by resazurin dye based assay; format: functional; details: time 2-3 weeks
A549 [10] = assay: Cytotoxicity against human A549 cells upto 12.5 uM incubated for 24 hrs by resazurin dye based cell viability assay; format: toxicity; details: a549, 24 h
HEK293 [11] = assay: Cytotoxicity against HEK293 cells upto 12.5 uM incubated for 24 hrs by resazurin dye based cell viability assay; format: toxicity; details: human, hek293, 24 h
J774.1 [12] = assay: Cytotoxicity against mouse J774.1 cells upto 12.5 uM incubated for 24 hrs by resazurin dye based cell viability assay; format: toxicity; details: j774.1, 24 h
HEK293 [13] = assay: Cytotoxicity against HEK293 cells <=50 uM incubated for 24 hrs by resazurin dye based cell viability assay; format: toxicity; details: human, hek293, 24 h
J774.1 [14] = assay: Cytotoxicity against mouse J774.1 cells <=50 uM incubated for 24 hrs by resazurin dye based cell viability assay; format: toxicity; details: j774.1, 24 h
A549 [15] = assay: Cytotoxicity against human A549 cells upto 50 uM incubated for 24 hrs by resazurin dye based cell viability assay; format: toxicity; details: a549, 24 h
[16] = test system: Mycobacterium tuberculosis; assay: Antibacterial activity against Mycobacterium tuberculosis H37Rv assessed as MIC of kanamycin A at 55.8 uM incubated for 24 hrs followed by kanamycin A addition measured after 6 days by alamarblue dye based assay; format: functional; details: 168 h, time 7 day
[17] = test system: Mycobacterium tuberculosis; assay: Antibacterial activity against Mycobacterium tuberculosis K204 assessed as MIC of kanamycin A at 55.8 uM incubated for 24 hrs followed by kanamycin A addition measured after 6 days by alamarblue dye based assay; format: functional; details: K204, 168 h, time 7 day
[18] = test system: Mycobacterium tuberculosis; assay: Antibacterial activity against Mycobacterium tuberculosis mc2 6230 assessed as MIC of kanamycin A at 25 uM incubated for 24 hrs followed by kanamycin A addition measured after 6 days by alamarblue dye based assay; format: functional; details: mc2 6230, 168 h, time 7 day
[19] = test system: Mycobacterium tuberculosis; assay: Antibacterial activity against Mycobacterium tuberculosis mc2 6230 K204 assessed as MIC of kanamycin A at 25 uM incubated for 24 hrs followed by kanamycin A addition measured after 6 days by alamarblue dye based assay; format: functional; details: time 7 day
N-acetyltransferase Eis [20] = molecular target: T1, N-acetyltransferase Eis; assay: Binding affinity to wild-type Mycobacterium tuberculosis Eis expressed in Escherichia coli BL21(DE3) cells assessed as inhibition constant incubated for 5 mins by Ellman's method based Michaelis-Menten analysis
[21] = test system: Mycobacterium intracellulare; assay: Antibacterial activity against Mycobacterium intracellulare ATCC 13950 assessed as bacterial growth inhibition incubated for 2 to 3 weeks by resazurin dye based assay; format: functional; details: time 2-3 weeks
[22] = test system: Mycobacterium tuberculosis; assay: Antibacterial activity against Mycobacterium tuberculosis H37Rv assessed as MIC of kanamycin A at 7.9 uM incubated for 24 hrs followed by kanamycin A addition measured after 6 days by alamarblue dye based assay; format: functional; details: 168 h, time 7 day
[23] = test system: Mycobacterium tuberculosis; assay: Antibacterial activity against Mycobacterium tuberculosis H37Rv assessed as MIC of kanamycin A at 106 uM incubated for 24 hrs followed by kanamycin A addition measured after 6 days by alamarblue dye based assay; format: functional, organism-based; details: time 7.0 day
[24] = test system: Mycobacterium tuberculosis; assay: Antibacterial activity against Mycobacterium tuberculosis K204 assessed as MIC of kanamycin A at 106 uM incubated for 24 hrs followed by kanamycin A addition measured after 6 days by alamarblue dye based assay; format: functional, organism-based; details: time 7.0 day
A549 [25] = assay: Cytotoxicity against human A549 cells at 200 uM incubated for 24 hrs by resazurin dye based cell viability assay; format: toxicity; details: a549, 24 h
HEK293 [26] = assay: Cytotoxicity against HEK293 cells at 200 uM incubated for 24 hrs by resazurin dye based cell viability assay; format: toxicity; details: human, hek293, 24 h
J774.1 [27] = assay: Cytotoxicity against mouse J774.1 cells at 200 uM incubated for 24 hrs by resazurin dye based cell viability assay; format: toxicity; details: j774.1, 24 h
[28] = test system: Mycobacterium tuberculosis; assay: Antibacterial activity against Mycobacterium tuberculosis H37Rv assessed as bacterial growth inhibition measured after 6 days by alamarblue dye based assay; format: functional; details: 144 h, time 6 day
[29] = test system: Mycobacterium tuberculosis; assay: Antibacterial activity against Mycobacterium tuberculosis mc2 6230 assessed as bacterial growth inhibition measured after 6 days by alamarblue dye based assay; format: functional; details: mc2 6230, 144 h, time 6 day
[30] = test system: Mycobacterium tuberculosis; assay: Antibacterial activity against Mycobacterium tuberculosis mc2 6230 K204 assessed as bacterial growth inhibition measured after 6 days by alamarblue dye based assay; format: functional; details: mc2 6230 K204, 144 h, time 6 day
[31] = test system: Mycobacterium tuberculosis; assay: Antibacterial activity against Mycobacterium tuberculosis H37Rv assessed as MIC of kanamycin A at 97.9 uM incubated for 24 hrs followed by kanamycin A addition measured after 6 days by alamarblue dye based assay; format: functional, organism-based; details: time 7.0 day
[32] = test system: Mycobacterium tuberculosis; assay: Antibacterial activity against Mycobacterium tuberculosis K204 assessed as MIC of kanamycin A at 97.9 uM incubated for 24 hrs followed by kanamycin A addition measured after 6 days by alamarblue dye based assay; format: functional, organism-based; details: time 7.0 day
A549 [33] = assay: Cytotoxicity against human A549 cells >=50 uM incubated for 24 hrs by resazurin dye based cell viability assay; format: toxicity; details: a549, 24 h
[34] = test system: Mycobacterium tuberculosis; assay: Antibacterial activity against Mycobacterium tuberculosis H37Rv assessed as MIC of kanamycin A at 19.7 uM incubated for 24 hrs followed by kanamycin A addition measured after 6 days by alamarblue dye based assay; format: functional; details: 168 h, time 7 day

Clc1ccc(COc2ccc(CNCc3ccccc3)cc2)cc1
IC50 (N-acetyltransferase Eis [1]): > 200000 nM
MIC [2]: 3.9 µM (≈ 1.32 µg/mL)
Activity [3]: Active
MIC [4]: 12.5 µM (≈ 4.22 µg/mL)
MIC [5]: < 1.25 µM
MIC [6]: < 1.25 µM
MIC [7]: 15.6 µM (≈ 5.27 µg/mL)
MIC [8]: 31.3 µM (≈ 10.6 µg/mL)
MIC (Mycobacterium avium): 62.5 µM (≈ 21.1 µg/mL)
MIC [9]: 15.6 µM (≈ 5.27 µg/mL)
Activity (A549 [10]): Non-Toxic
Activity (HEK293 [11]): Non-Toxic
Activity (J774.1 [12]): Non-Toxic
Activity (HEK293 [13]): Non-Toxic
Activity (J774.1 [14]): Non-Toxic
Activity (A549 [15]): Non-Toxic

Clc1ccc(COc2ccccc2CNCc2ccncc2)cc1
IC50 (N-acetyltransferase Eis [1]): 1400 nM
MIC [2]: 31.3 µM (≈ 10.6 µg/mL)
MIC [16]: < 1.25 µg/mL
MIC [17]: > 10 µg/mL
MIC [4]: 50 µM (≈ 16.9 µg/mL)
MIC [18]: < 1.25 µM
MIC [19]: >10 µM
Ki (N-acetyltransferase Eis [20]): 1040 nM
MIC [8]: 31.3 µM (≈ 10.6 µg/mL)
MIC (Mycobacterium avium): > 62.5 µM
MIC [21]: 31.3 µM (≈ 10.6 µg/mL)
MIC [9]: > 62.5 µM

Clc1cccc(COc2ccccc2CNCc2cccnc2)c1
IC50 (N-acetyltransferase Eis [1]): 4200 nM
MIC [22]: 7.9 µg/mL
MIC [4]: 100 µM (≈ 33.9 µg/mL)
MIC [8]: > 62.5 µM
MIC (Mycobacterium avium): > 62.5 µM
MIC [21]: > 62.5 µM
MIC [9]: > 62.5 µM

Clc1ccc(COc2ccc(CNCc3ccncc3)cc2)cc1
IC50 (N-acetyltransferase Eis [1]): 2000 nM
MIC [2]: 3.9 µM (≈ 1.32 µg/mL)
Activity [3]: Active
Activity [23]: Active
Activity [24]: Active
MIC [4]: 25 µM (≈ 8.47 µg/mL)
MIC [8]: 62.5 µM (≈ 21.2 µg/mL)
MIC (Mycobacterium avium): > 62.5 µM
MIC [21]: 2 µM (≈ 0.678 µg/mL)
Activity (A549 [10]): Non-Toxic
Activity (HEK293 [11]): Non-Toxic
Activity (J774.1 [12]): Non-Toxic
Activity (A549 [25]): Toxic
Activity (HEK293 [26]): Toxic
Activity (J774.1 [27]): Toxic

NC[C@H]1O[C@H](O[C@H]2[C@H](O)[C@@H](O[C@H]3O[C@H](CO)[C@@H](O)[C@H](N)[C@H]3O)[C@H](N)C[C@@H]2N)[C@H](O)[C@@H](O)[C@@H]1O [KANAMYCIN]
MIC [4]: < 1.25 µM
MIC [28]: 1.25 µg/mL (≈ 2.58 µM)
MIC [29]: < 1.25 µM
MIC [30]: 320 µM (≈ 155 µg/mL)

Clc1ccc(COc2ccccc2CNCc2cccnc2)cc1
IC50 (N-acetyltransferase Eis [1]): 2000 nM
MIC [2]: 62.5 µM (≈ 21.2 µg/mL)
Activity [3]: Active
Activity [31]: Active
Activity [32]: Active
MIC [4]: 50 µM (≈ 16.9 µg/mL)
MIC [18]: < 1.25 µM
MIC ([19]; Mycobacterium tuberculosis, mc2 6230 K204, 168 h, read-out: MIC): > 10 µM
Ki (N-acetyltransferase Eis [20]): 1160 nM
MIC [7]: 62.5 µM (≈ 21.2 µg/mL)
MIC [8]: > 62.5 µM
MIC (Mycobacterium avium): > 62.5 µM
Activity (A549 [10]): Non-Toxic
Activity (HEK293 [11]): Non-Toxic
Activity (J774.1 [12]): Non-Toxic
Activity (A549 [33]): Toxic

Fc1ccc(COc2ccc(CNCc3ccncc3)cc2)cc1
IC50 (N-acetyltransferase Eis [1]): ~1600 nM
MIC [2]: 7.8 µM (≈ 2.51 µg/mL)
MIC [34]: ≤ 1.25 µg/mL
MIC [4]: 50 µM (≈ 16.1 µg/mL)
MIC [8]: > 62.5 µM
MIC (Mycobacterium avium): > 62.5 µM
MIC [21]: 15.6 µM (≈ 5.03 µg/mL)
